Literature values as cited in paper PMC3853759 (International Journal of Pharmaceutical Investigation, 2013).

How the values were obtained:
[1] = tested on: mice
[2] = tested on: rats

In the case of `[Zn]` [Zn, Zinc], the “oral Zn dose producing acute toxicity” value [1] is given as 86 to 605 mg/kg and the “oral Zn dose producing acute toxicity” value [2] is given as 237 to 623 mg/kg.
